Tests used:
[1] = target: High affinity cGMP-specific 3',5'-cyclic phosphodiesterase 9A (Homo sapiens, UniProt O76083); experiment: Inhibition of full length human PDE9A expressed in Sf9 insect cells using [3H]-cGMP as substrate incubated for 60 mins by microbeta scintillation counter analysis
[2] = Selectivity index, ratio of IC50 for bovine brain PDE1 to IC50 for full length human PDE9A
[3] = Blood clearance in Wistar rat at 1 mg/kg, po or 0.3 mg/kg, iv measured over 24 hrs by LC-MS/MS analysis; type: ADME, organism-based; settings: in vivo
Cytochrome P450 2C9 = Cytochrome P450 2C9 (Homo sapiens, UniProt P11712); experiment: Inhibition of CYP2C9 in human liver microsomes using diclofenac as substrate by LC-MS/MS analysis; type: ADME, Microsome
Cytochrome P450 2C9, sequence (P11712 whole entry): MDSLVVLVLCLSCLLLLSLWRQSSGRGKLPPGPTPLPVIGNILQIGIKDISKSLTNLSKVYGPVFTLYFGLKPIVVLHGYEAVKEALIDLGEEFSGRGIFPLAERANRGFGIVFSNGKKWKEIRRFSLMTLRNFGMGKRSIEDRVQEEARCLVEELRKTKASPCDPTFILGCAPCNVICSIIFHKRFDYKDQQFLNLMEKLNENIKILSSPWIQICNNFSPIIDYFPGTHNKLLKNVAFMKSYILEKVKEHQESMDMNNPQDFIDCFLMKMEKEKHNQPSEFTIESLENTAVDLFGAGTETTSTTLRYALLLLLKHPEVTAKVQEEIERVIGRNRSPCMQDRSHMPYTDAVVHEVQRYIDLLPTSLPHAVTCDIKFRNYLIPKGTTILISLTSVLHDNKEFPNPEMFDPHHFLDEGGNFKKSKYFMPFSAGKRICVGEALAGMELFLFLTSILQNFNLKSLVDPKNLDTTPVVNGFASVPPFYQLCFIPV

[4] = target: T1, High affinity cGMP-specific 3',5'-cyclic phosphodiesterase 9A (Mus musculus, UniProt O70628); experiment: Inhibition of mouse PDE9A expressed in recombinant CHO cells coexpressing soluble guanylate cyclase incubated for 6 mins by [3H]-cGMP scintillation proximity assay; type: cell-based
T1 sequence (O70628 whole entry): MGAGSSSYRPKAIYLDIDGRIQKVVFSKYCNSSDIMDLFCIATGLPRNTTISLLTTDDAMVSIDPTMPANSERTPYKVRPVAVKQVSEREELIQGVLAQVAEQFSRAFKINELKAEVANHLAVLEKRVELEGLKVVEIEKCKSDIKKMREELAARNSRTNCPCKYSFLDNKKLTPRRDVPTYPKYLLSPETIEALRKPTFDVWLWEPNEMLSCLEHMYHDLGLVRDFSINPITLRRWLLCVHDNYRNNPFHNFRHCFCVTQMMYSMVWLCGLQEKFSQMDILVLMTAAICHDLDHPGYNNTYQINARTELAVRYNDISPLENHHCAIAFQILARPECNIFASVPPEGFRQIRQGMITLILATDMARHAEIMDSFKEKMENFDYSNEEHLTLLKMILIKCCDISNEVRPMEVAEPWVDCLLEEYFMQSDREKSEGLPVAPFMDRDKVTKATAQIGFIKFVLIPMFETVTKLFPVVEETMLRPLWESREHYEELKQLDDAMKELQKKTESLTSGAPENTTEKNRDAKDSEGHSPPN

[5] = Stability in human hepatocytes assessed as drug degradation incubated for 4 hrs; type: ADME, cell-based, Hepatocyte
[6] = Volume of distribution at steady state in dog at 1 mg/kg, po or 0.3 mg/kg, iv measured over 24 hrs by LC-MS/MS analysis; type: ADME, organism-based, Canis lupus familiaris; settings: in vivo
[7] = Protein binding in monkey plasma assessed as fraction unbound incubated for 6 hrs by LC-MS/MS analysis; type: ADME, cell-free, Macaca mulatta; settings: rhesus monkey
[8] = Protein binding in rat plasma assessed as fraction unbound incubated for 6 hrs by LC-MS/MS analysis; type: ADME, cell-free
[9] = Protein binding in mouse plasma assessed as fraction unbound incubated for 6 hrs by LC-MS/MS analysis; type: ADME, cell-free
[10] = Volume of distribution at steady state in Wistar rat at 1 mg/kg, po or 0.3 mg/kg, iv measured over 24 hrs by LC-MS/MS analysis; type: ADME, organism-based; settings: in vivo
[11] = MRT in Wistar rat at 0.3 mg/kg, iv measured over 24 hrs by LC-MS/MS analysis; type: ADME, organism-based; settings: in vivo
[12] = Protein binding in dog plasma assessed as fraction unbound incubated for 6 hrs by LC-MS/MS analysis; type: ADME, cell-free, Canis lupus familiaris
[13] = Blood clearance in dog at 1 mg/kg, po or 0.3 mg/kg, iv measured over 24 hrs by LC-MS/MS analysis; type: ADME, organism-based, Canis lupus familiaris; settings: in vivo
[14] = Toxicity in rat assessed as increase in heart rate at 5 to 40 mg/kg, po administered once daily via gavage and measured every 5 mins by telemetry system based analysis; type: organism-based; settings: in vivo, dose 5-40 mg/kg
[15] = Oral bioavailability in dog at 1 mg/kg measured over 24 hrs by LC-MS/MS analysis; type: ADME, organism-based, Canis lupus familiaris; settings: in vivo
[16] = Protein binding in human plasma assessed as fraction unbound incubated for 6 hrs by LC-MS/MS analysis; type: ADME, cell-free
[17] = Induction of CYP3A4 mRNA expression in human hepatocytes at 9.2 uM incubated for 48 hrs with media replacement for […] by qPCR analysis; type: ADME, cell-based, Hepatocyte
[18] = Solubility of compound in PBS at pH 7 incubated for 24 hrs by UV based HPLC analysis; type: physicochemical; settings: buffer, pH 7, 24 h
[19] = Oral bioavailability in Wistar rat at 1 mg/kg measured over 24 hrs by LC-MS/MS analysis; type: ADME, organism-based; settings: in vivo, po, 1 mg/kg, 24 h
[20] = MRT in dog at 0.3 mg/kg, iv measured over 24 hrs by LC-MS/MS analysis; type: ADME, organism-based, Canis lupus familiaris; settings: in vivo
[21] = Toxicity in rat assessed as increase in blood pressure at 5 to 40 mg/kg, po administered once daily via gavage and measured every 5 mins by telemetry system based analysis; type: organism-based; settings: in vivo, dose 5-40 mg/kg
[22] = Drug metabolism in rat hepatocytes assessed as glucuronidation at 10 uM incubated for 30 mins by LC-MS/MS analysis; type: ADME, cell-based, Hepatocyte; settings: 0.5 h
[23] = Selectivity index, ratio of IC50 for bovine PDE6 to IC50 for full length human PDE11A

High affinity cGMP-specific 3',5'-cyclic phosphodiesterase 9A (Homo sapiens, UniProt O76083), sequence (O76083 whole entry): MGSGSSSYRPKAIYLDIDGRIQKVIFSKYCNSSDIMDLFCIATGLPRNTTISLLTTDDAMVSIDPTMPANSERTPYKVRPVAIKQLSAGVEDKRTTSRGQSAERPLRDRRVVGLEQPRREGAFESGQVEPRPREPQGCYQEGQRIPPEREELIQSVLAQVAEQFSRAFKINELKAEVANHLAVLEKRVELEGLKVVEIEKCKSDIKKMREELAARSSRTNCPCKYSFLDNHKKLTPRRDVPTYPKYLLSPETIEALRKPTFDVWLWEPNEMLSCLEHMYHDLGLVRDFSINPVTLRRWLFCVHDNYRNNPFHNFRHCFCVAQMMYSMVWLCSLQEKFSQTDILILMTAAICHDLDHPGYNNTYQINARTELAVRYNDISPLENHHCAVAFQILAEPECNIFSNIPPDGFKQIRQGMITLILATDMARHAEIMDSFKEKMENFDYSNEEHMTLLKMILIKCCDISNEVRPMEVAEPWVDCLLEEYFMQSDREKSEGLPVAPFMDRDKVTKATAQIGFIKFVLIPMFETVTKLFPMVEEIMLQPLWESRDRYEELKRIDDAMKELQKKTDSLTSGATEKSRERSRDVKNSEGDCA

For `CCCC1CNCc2c1[nH]c(=O)c(C#N)c2N1CCC2(CC2)C(F)(F)C1` (racemic), the IC50 [1] was 100 nM and the Ratio IC50 [2] was 9.

For `CCCCC1CCCc2c1[nH]c(=O)c(C#N)c2-c1ccc(C)cc1` (racemic), the IC50 [1] was 35 nM.

For `CCCC1CNCc2c1[nH]c(=O)c(C#N)c2N1CCC2(CC1)CC2.Cl` (stereo in doubt; form 2), the CL [3] was 40 mL/min/kg, the IC50 (Cytochrome P450 2C9) was 16000 nM and the IC50 [1] was 15 nM. For the same compound, the EC50 [4] was 1000 nM, the Stability [5] was “Stable” and the Vdss [6] was 3 L/kg. The Fu [7] was 42%, the Fu [8] was 20% and the Fu [9] was 41%. The Vdss [10] was 4.5 L/kg, the MRT [11] was 1.9 h and the Fu [12] was 43%. The CL [13] was 15 mL/min/kg, the Activity [14] was “Non-Toxic” and the F [15] was 80%. The Fu [16] was 34%, the Activity [17] was “Active” and the solubility [18] was over 500 µg/mL. For the same compound, the F [19] was 61%, the MRT [20] was 4 h and the Activity [21] was “Non-Toxic”.

Work on `CCCC1CNCc2c1[nH]c(=O)c(C#N)c2N1CCC(C)CC1` (racemic) yielded an IC50 [1] of 200 nM.

In the case of `CC1(C)CCN(c2c(C#N)c(=O)[nH]c3cccnc23)CC1`, the IC50 [1] is reported as 330 nM.

For `Cc1ccc(-c2c3c([nH]c(=O)c2C#N)C(C(C)C)CNC3)cc1.Cl` (racemic), the Drug metabolism [22] was “Metabolite_Detected”.

For `COCC1CCCc2c1[nH]c(=O)c(C#N)c2-c1ccc(C)cc1` (racemic), the Drug metabolism [22] was “Metabolite_Detected”.

In the case of `Cc1ccc(-c2c3c([nH]c(=O)c2C#N)CCCC3)cc1`, the Ratio IC50 [23] is reported as 17.

In the case of `CCc1ccnc2c(N3CCC(C)(C)CC3)c(C#N)c(=O)[nH]c12`, the IC50 [1] is reported as 610 nM.

`CCCC1CNCc2c1[nH]c(=O)c(C#N)c2N1CCC2(CC1)CC2` (stereo in doubt; form 1) showed an IC50 [1] of over 10000 nM.

Reference: ChEMBL document CHEMBL5150071, “BAY-7081: A Potent, Selective, and Orally Bioavailable Cyanopyridone-Based PDE9A Inhibitor” (J Med Chem, 2022)
